The results in this text go back to patent publication US12497365B2, “4-pyridinyl formamide compound or derivative thereof, preparation method therefor, herbicidal composition and use thereof” (Qingdao Kingagroot Chemical Compound Co., Ltd., priority 2019, dated 2025).

What all share (assay): Weeding effect in post-emergence stage
What all share (type): in vivo
Conditions in all cases: active ingredient 2000 g/ha, 3 weeks after application, fresh weight control rate

One experiment relates to Chenopodium album. The method, boiled down: (§1)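 Control of growth was scored on fresh weight 3 weeks after a post-emergence spray-tower application. Rates were 2000, 1000, 500, 250 or 125 g/ha, formulated in acetone/Tween 80 plus methyl oleate concentrate (1.5 L/ha), and applied to potted plants at the 2-3 leaf stage.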
Experiment [1] deals with Amaranthus retroflexus L. Summed up: as §1
In the next experiment the test system is Abutilon theophrasti. The method, boiled down: as §1
Another experiment deals with Descurainia sophia. The method, boiled down:
as §1

Regarding `Cn1nnnc1NC(=O)c1ccnc(-c2cc(C(F)(F)F)cc(C(F)(F)F)c2)c1Cl` [Compound 1-77], the “Weeding effect, activity level (growth control rate), Chenopodium album” value (“Weeding effect … Chenopodium album” for short) with Chenopodium album is recorded as 5 (Level 5: growth control rate is above 85%). Also, the “Weeding effect, activity level (growth control rate), Amaranthus retroflexus L.” value (“Weeding effect … Amaranthus retroflexus L.” for short) in experiment [1] is recorded as 5 (Level 5: growth control rate is above 85%). Besides, in the experiment with Abutilon theophrasti, the “Weeding effect, activity level (growth control rate), Abutilon theophrasti” value (“Weeding effect … Abutilon theophrasti” for short) was 5 (Level 5: growth control rate is above 85%). Further, the “Weeding effect, activity level (growth control rate), Descurainia sophia” value (“Weeding effect … Descurainia sophia” below) with Descurainia sophia is given as 5 (Level 5: growth control rate is above 85%).
Turning to `Cn1nnnc1NC(=O)c1ccnc(-c2ccc(C#N)cc2F)c1Cl` [Compound 1-78], in the experiment with Chenopodium album, the “Weeding effect … Chenopodium album” value is on record as 5 (Level 5: growth control rate is above 85%). Besides, the “Weeding effect … Amaranthus retroflexus L.” value in experiment [1] is reported as 5 (Level 5: growth control rate is above 85%). For the same compound, the “Weeding effect … Abutilon theophrasti” value with Abutilon theophrasti was 5 (Level 5: growth control rate is above 85%). The “Weeding effect … Descurainia sophia” value in the experiment on Descurainia sophia is recorded as 5 (Level 5: growth control rate is above 85%).
As for `Cn1nnnc1NC(=O)c1ccnc(-c2ccc(C#N)c(F)c2)c1Cl` [Compound 1-79], in the experiment on Chenopodium album, the “Weeding effect … Chenopodium album” value was 5 (Level 5: growth control rate is above 85%). Besides, the “Weeding effect … Amaranthus retroflexus L.” value in experiment [1] is given as 5 (Level 5: growth control rate is above 85%). For the same compound, the “Weeding effect … Abutilon theophrasti” value in the experiment on Abutilon theophrasti is on record as 5 (Level 5: growth control rate is above 85%). Moreover, the “Weeding effect … Descurainia sophia” value with Descurainia sophia is on record as 5 (Level 5: growth control rate is above 85%).
With `Cn1nnnc1NC(=O)c1ccnc(-c2cccc(C#N)c2F)c1Cl` [Compound 1-80], the “Weeding effect … Chenopodium album” value in the experiment with Chenopodium album is reported as 5 (Level 5: growth control rate is above 85%). Further, the “Weeding effect … Amaranthus retroflexus L.” value in experiment [1] is given as 5 (Level 5: growth control rate is above 85%). Also, the “Weeding effect … Abutilon theophrasti” value in the experiment on Abutilon theophrasti is recorded as 5 (Level 5: growth control rate is above 85%). The “Weeding effect … Descurainia sophia” value in the experiment with Descurainia sophia is reported as 5 (Level 5: growth control rate is above 85%).
As for `Cn1nnnc1NC(=O)c1ccnc(-c2cc(F)cc(C#N)c2)c1Cl` [Compound 1-81], in the experiment with Chenopodium album, the “Weeding effect … Chenopodium album” value is recorded as 5 (Level 5: growth control rate is above 85%). Besides, the “Weeding effect … Amaranthus retroflexus L.” value in experiment [1] is given as 5 (Level 5: growth control rate is above 85%). Besides, the “Weeding effect … Abutilon theophrasti” value in the experiment with Abutilon theophrasti was 5 (Level 5: growth control rate is above 85%). For the same compound, the “Weeding effect … Descurainia sophia” value with Descurainia sophia is recorded as 5 (Level 5: growth control rate is above 85%).
For the compound `Cn1nnnc1NC(=O)c1ccnc(-c2cc(C#N)ccc2F)c1Cl` [Compound 1-82], the “Weeding effect … Chenopodium album” value with Chenopodium album was 5 (Level 5: growth control rate is above 85%). In addition, the “Weeding effect … Amaranthus retroflexus L.” value in experiment [1] is 5 (Level 5: growth control rate is above 85%). For the same compound, the “Weeding effect … Abutilon theophrasti” value in the experiment on Abutilon theophrasti was 5 (Level 5: growth control rate is above 85%). Besides, the “Weeding effect … Descurainia sophia” value in the experiment with Descurainia sophia was 5 (Level 5: growth control rate is above 85%).
As for `Cn1nnnc1NC(=O)c1ccnc(-c2ccc(F)cc2C#N)c1Cl` [Compound 1-83], the “Weeding effect … Chenopodium album” value in the experiment on Chenopodium album is on record as 5 (Level 5: growth control rate is above 85%). Further, the “Weeding effect … Amaranthus retroflexus L.” value in experiment [1] is 5 (Level 5: growth control rate is above 85%). Further, in the experiment with Abutilon theophrasti, the “Weeding effect … Abutilon theophrasti” value is 5 (Level 5: growth control rate is above 85%). Also, the “Weeding effect … Descurainia sophia” value in the experiment on Descurainia sophia is recorded as 5 (Level 5: growth control rate is above 85%).
Take `Cn1nnnc1NC(=O)c1ccnc(-c2ccc(F)c(C#N)c2)c1Cl` [Compound 1-84]: the “Weeding effect … Chenopodium album” value in the experiment on Chenopodium album was 5 (Level 5: growth control rate is above 85%). Also, in experiment [1], the “Weeding effect … Amaranthus retroflexus L.” value was 5 (Level 5: growth control rate is above 85%). Also, in the experiment with Abutilon theophrasti, the “Weeding effect … Abutilon theophrasti” value is 5 (Level 5: growth control rate is above 85%). Further, the “Weeding effect … Descurainia sophia” value with Descurainia sophia is given as 5 (Level 5: growth control rate is above 85%).
`Cn1nnnc1NC(=O)c1ccnc(-c2ccc(F)c(C(F)(F)F)c2)c1Cl` [Compound 1-85]: the “Weeding effect … Chenopodium album” value with Chenopodium album is 5 (Level 5: growth control rate is above 85%). For the same compound, the “Weeding effect … Amaranthus retroflexus L.” value in experiment [1] is 5 (Level 5: growth control rate is above 85%). Also, in the experiment on Abutilon theophrasti, the “Weeding effect … Abutilon theophrasti” value is listed as 5 (Level 5: growth control rate is above 85%). In the experiment with Descurainia sophia, the “Weeding effect … Descurainia sophia” value was 5 (Level 5: growth control rate is above 85%).
Consider `Cn1nnnc1NC(=O)c1ccnc(-c2ccc(Cl)cc2Cl)c1Cl` [Compound 1-86], for which the “Weeding effect … Chenopodium album” value with Chenopodium album is 5 (Level 5: growth control rate is above 85%). The “Weeding effect … Amaranthus retroflexus L.” value in experiment [1] is 5 (Level 5: growth control rate is above 85%). The “Weeding effect … Abutilon theophrasti” value in the experiment with Abutilon theophrasti is given as 5 (Level 5: growth control rate is above 85%). In the experiment on Descurainia sophia, the “Weeding effect … Descurainia sophia” value is reported as 5 (Level 5: growth control rate is above 85%).
Take `Cn1nnnc1NC(=O)c1ccnc(-c2cccc(Cl)c2Cl)c1Cl` [Compound 1-87]: the “Weeding effect … Chenopodium album” value in the experiment with Chenopodium album is given as 5 (Level 5: growth control rate is above 85%). Further, in experiment [1], the “Weeding effect … Amaranthus retroflexus L.” value is given as 5 (Level 5: growth control rate is above 85%). In addition, in the experiment on Abutilon theophrasti, the “Weeding effect … Abutilon theophrasti” value was 5 (Level 5: growth control rate is above 85%). The “Weeding effect … Descurainia sophia” value in the experiment on Descurainia sophia is reported as 5 (Level 5: growth control rate is above 85%).
`Cn1nnnc1NC(=O)c1ccnc(-c2ccc(Cl)c(Cl)c2)c1Cl` [Compound 1-88]: in the experiment with Chenopodium album, the “Weeding effect … Chenopodium album” value is recorded as 5 (Level 5: growth control rate is above 85%). For the same compound, in experiment [1], the “Weeding effect … Amaranthus retroflexus L.” value is 5 (Level 5: growth control rate is above 85%). The “Weeding effect … Abutilon theophrasti” value in the experiment with Abutilon theophrasti is listed as 5 (Level 5: growth control rate is above 85%). The “Weeding effect … Descurainia sophia” value with Descurainia sophia was 5 (Level 5: growth control rate is above 85%).
As to `Cn1nnnc1NC(=O)c1ccnc(-c2cc(Cl)cc(Cl)c2)c1Cl` [Compound 1-89], the “Weeding effect … Chenopodium album” value with Chenopodium album is on record as 5 (Level 5: growth control rate is above 85%). Moreover, in experiment [1], the “Weeding effect … Amaranthus retroflexus L.” value is listed as 5 (Level 5: growth control rate is above 85%). For the same compound, the “Weeding effect … Abutilon theophrasti” value in the experiment on Abutilon theophrasti was 5 (Level 5: growth control rate is above 85%). Moreover, in the experiment with Descurainia sophia, the “Weeding effect … Descurainia sophia” value is 5 (Level 5: growth control rate is above 85%).
With `Cn1nnnc1NC(=O)c1ccnc(-c2cc(F)cc(Cl)c2)c1Cl` [Compound 1-90], in the experiment with Chenopodium album, the “Weeding effect … Chenopodium album” value is 5 (Level 5: growth control rate is above 85%). The “Weeding effect … Amaranthus retroflexus L.” value in experiment [1] is 5 (Level 5: growth control rate is above 85%). The “Weeding effect … Abutilon theophrasti” value in the experiment with Abutilon theophrasti was 5 (Level 5: growth control rate is above 85%). Moreover, the “Weeding effect … Descurainia sophia” value in the experiment with Descurainia sophia was 5 (Level 5: growth control rate is above 85%).
Regarding `Cn1nnnc1NC(=O)c1ccnc(-c2ccc(Cl)c(F)c2)c1Cl` [Compound 1-91], the “Weeding effect … Chenopodium album” value in the experiment with Chenopodium album was 5 (Level 5: growth control rate is above 85%). The “Weeding effect … Amaranthus retroflexus L.” value in experiment [1] was 5 (Level 5: growth control rate is above 85%). Besides, in the experiment with Abutilon theophrasti, the “Weeding effect … Abutilon theophrasti” value is given as 5 (Level 5: growth control rate is above 85%). Further, in the experiment on Descurainia sophia, the “Weeding effect … Descurainia sophia” value is reported as 5 (Level 5: growth control rate is above 85%).
As to `Cn1nnnc1NC(=O)c1ccnc(-c2ccc(F)c(Cl)c2)c1Cl` [Compound 1-92], the “Weeding effect … Chenopodium album” value with Chenopodium album is given as 5 (Level 5: growth control rate is above 85%). In experiment [1], the “Weeding effect … Amaranthus retroflexus L.” value is recorded as 5 (Level 5: growth control rate is above 85%). Further, the “Weeding effect … Abutilon theophrasti” value in the experiment on Abutilon theophrasti is reported as 5 (Level 5: growth control rate is above 85%). Moreover, in the experiment with Descurainia sophia, the “Weeding effect … Descurainia sophia” value is listed as 5 (Level 5: growth control rate is above 85%).
With `Cn1nnnc1NC(=O)c1ccnc(-c2cccc(Cl)c2F)c1Cl` [Compound 1-93], in the experiment with Chenopodium album, the “Weeding effect … Chenopodium album” value is on record as 5 (Level 5: growth control rate is above 85%). In addition, in experiment [1], the “Weeding effect … Amaranthus retroflexus L.” value is 5 (Level 5: growth control rate is above 85%). Moreover, the “Weeding effect … Abutilon theophrasti” value in the experiment with Abutilon theophrasti was 5 (Level 5: growth control rate is above 85%). In the experiment with Descurainia sophia, the “Weeding effect … Descurainia sophia” value is recorded as 5 (Level 5: growth control rate is above 85%).
`Cn1nnnc1NC(=O)c1ccnc(-c2ccc(F)cc2Cl)c1Cl` [Compound 1-94]: the “Weeding effect … Chenopodium album” value in the experiment on Chenopodium album was 5 (Level 5: growth control rate is above 85%). In experiment [1], the “Weeding effect … Amaranthus retroflexus L.” value is 5 (Level 5: growth control rate is above 85%). Besides, the “Weeding effect … Abutilon theophrasti” value in the experiment with Abutilon theophrasti is reported as 5 (Level 5: growth control rate is above 85%). In the experiment on Descurainia sophia, the “Weeding effect … Descurainia sophia” value is 5 (Level 5: growth control rate is above 85%).
As to `Cn1nnnc1NC(=O)c1ccnc(-c2ccc(Cl)cc2F)c1Cl` [Compound 1-95], the “Weeding effect … Chenopodium album” value with Chenopodium album is 5 (Level 5: growth control rate is above 85%). In addition, the “Weeding effect … Amaranthus retroflexus L.” value in experiment [1] is 5 (Level 5: growth control rate is above 85%). In the experiment on Abutilon theophrasti, the “Weeding effect … Abutilon theophrasti” value was 5 (Level 5: growth control rate is above 85%). Also, the “Weeding effect … Descurainia sophia” value with Descurainia sophia is 5 (Level 5: growth control rate is above 85%).
